In US6649614B2, “Use of a NK-1 receptor antagonist and an antidepressant and/or an anti-anxiety agent for treatment of depression or anxiety” (Merck Sharp & Dohme Ltd., priority 1996, dated 2003):

Key:
[1] = test system: guinea-pig pups; experiment: Separation-induced vocalisation in guinea-pig pups; assay type: in vivo; conditions: for attenuation of separation-induced vocalisations compared with baseline: 30 minutes before isolation
Excerpt: ASSAY 2: Separation-induced Vocalisation
Male and female guinea-pigs pups are housed in family groups with their mothers and littermates throughout the study. Experiments are commenced after weaning when the pups are at least 2 weeks old. Before entering an experiment, the pups may be screened to ensure that a vigorous vocalisation response is reproducibly elicited following maternal separation. The pups are placed individually in an observation cage (approximately 55 cm×39 cm×19 cm) in a room physically isolated from the home cage for approximately 15 minutes and the duration and/or number of vocalisation during this baseline period is recorded. […] The duration and/or number of vocalisation on drug treatment days may be expressed as a percentage of the pre-treatment baseline value for each animal or compared with values obtained in vehicle-treated animals. The same subjects may be retested once weekly for up to 6 weeks.

[2] = test system: gerbils; experiment: Gerbil foot-tapping (CNS penetration) assay; assay type: in vivo, Mongolian gerbil (Meriones unguiculatus); conditions: for gerbil foot-tapping (5 mins.) ID50 / gerbil foot-tapping (24 hrs.) ID50: i.v.; for gerbil foot-tapping (5 mins.) ID50: 5 mins. before central NK-1 agonist challenge; for gerbil foot-tapping (24 hrs.) ID50: 24 hrs. before central NK-1 agonist challenge
Excerpt: ASSAY 3: Gerbil Foot-tapping (CNS Penetration) Assay
CNS-penetrant NK-1 receptor antagonists for use in the present invention can be identified by their ability to inhibit foot tapping in gerbils induced by anxiogenic agents (such as pentagastrin) or central infusion of NK-1 receptor agonists such as GR73632, or caused by aversive stimulation such as foot shock or single housing, based on the method of Rupniak & Williams, Eur. J. Pharmacol., 1994, 265, 179.
Male or female Mongolian gerbils (35-70 g) are anaesthetised by inhalation of an isoflurane/oxygen mixture to permit exposure of the jugular vein in order to permit administration of test compounds or vehicle in an injection volume of approximately 5 ml/kg i.v. Alternatively, test compounds may be administered orally or by subcutaneous or intraperitoneal routes. A skin incision is then made in the midline of the scalp to expose the skull.

[3] = test system: ferrets; experiment: Ferret emesis (cisplatin-induced); assay type: in vivo; conditions: p.o., 60 minutes before cisplatin 10 mg/kg i.v.
Excerpt: ASSAY 4: Ferret Emesis […]

CN1C(=O)CN=C(c2ccccc2)c2cc(Cl)ccc21 [diazepam, reference compound]
guinea-pig vocalisation ID50 ([1]; s.c.): 0.7 mg/kg s.c.

CN(C)CCCN1c2ccccc2CCc2ccccc21 [imipramine, reference compound]
guinea-pig vocalisation ID50 ([1]; s.c.): 5.4 mg/kg s.c. | foot-tapping ID50 ([2]; s.c., foot-tapping induced by substance P): 3.8 mg/kg s.c.

O=C1CC2(CCCC2)CC(=O)N1CCCCN1CCN(c2ncccn2)CC1 [buspirone, reference compound]
attenuation of separation-induced vocalisations compared with baseline ([1]; 0.25 mg/kg s.c. alone): approximately 25% | guinea-pig vocalisation ID50 ([1]; s.c.): 0.5 mg/kg s.c.

C[C@@H](O[C@H]1OCCN(Cc2n[nH]c(=O)[nH]2)[C@H]1c1ccc(F)cc1)c1cc(C(F)(F)F)cc(C(F)(F)F)c1 [2-(R)-(1-(R)-(3,5-bis(trifluoromethyl)phenyl)ethoxy)-3-(S)-(4-fluorophenyl)-4-(3-(5-oxo-1H,4H-1,2,4-triazolo)methyl)morpholine]
ID90 in the ferret emesis assay [3]: < 3 mg/kg p.o. | guinea-pig vocalisation ID50 ([1]; p.o., 4 hrs. pretreatment): ID50 = 0.73 mg/kg p.o. | gerbil foot-tapping (5 mins.) ID50 [2]: ID50 = 0.36 mg/kg i.v. | gerbil foot-tapping (24 hrs.) ID50 [2]: ID50 = 0.33 mg/kg i.v.

C[C@@H](O[C@@H]1OCCN(Cc2nn[nH]c2CN(C)C)[C@@H]1c1ccccc1)c1cc(C(F)(F)F)cc(C(F)(F)F)c1 [Test Compound B, 2-(S)-(1-(R)-(3,5-bis(trifluoromethyl)phenyl)ethoxy)-4-(5-(dimethylamino)methyl-1,2,3-triazol-4-yl)methyl-3-(R)-phenylmorpholine]
attenuation of separation-induced vocalisations when administered alone ([1]; 0.25 mg/kg s.c. alone): failure | potentiation of the inhibitory effect of buspirone on separation-induced vocalisations ([1]; 0.25 mg/kg s.c. with buspirone 0.25 mg/kg s.c.): failure | potentiation of the inhibitory effect of fluoxetine on separation-induced vocalisations ([1]; 0.25 mg/kg s.c. with fluoxetine 2 mg/kg i.p.): failure

C[C@@H](O[C@H]1OCCN(Cc2nn[nH]c2CN(C)C)[C@H]1c1ccccc1)c1cc(C(F)(F)F)cc(C(F)(F)F)c1 [Test Compound A, 2-(R)-(1-(R)-(3,5-bis(trifluoromethyl)phenyl)ethoxy)-4-(5-(dimethylamino)methyl-1,2,3-triazol-4-yl)methyl-3-(S)-phenylmorpholine]
attenuation of separation-induced vocalisations compared with baseline ([1]; 0.25 mg/kg s.c. alone): approximately 25% | guinea-pig vocalisation ID50 ([1]; s.c.): ID50 = 0.5 mg/kg s.c. | gerbil foot-tapping (5 mins.) ID50 [2]: ID50 = 0.12 mg/kg i.v. | gerbil foot-tapping (24 hrs.) ID50 [2]: ID50 = 0.17 mg/kg i.v.

CNCCC(Oc1ccc(C(F)(F)F)cc1)c1ccccc1 (stereo not drawn) [fluoxetine, reference compound]
attenuation of separation-induced vocalisations compared with baseline ([1]; 2 mg/kg i.p. alone): approximately 25% | guinea-pig vocalisation ID50 ([1]; i.p.): 2.7 mg/kg i.p.
